Assay results: publication PMC11277145, “Wrinkle-Improving Effect of Novel Peptide That Binds to Nicotinic Acetylcholine Receptor” (International Journal of Molecular Sciences, 2024)
Where no end group is shown, it is not given here.

Tests used:
nAChR subunit α1 = biological target: T1, nAChR subunit α1 (Homo sapiens, UniProt P02708); experiment: SPR binding affinity to immobilized nAChR subunit α1
T1 construct: purchased MyBioSource MBS963713
From the text: The ligand used recombinant human acetylcholine receptor subunit α1, Cat. No. MBS963713 (MyBioSource, San Diego, CA, USA), and SYN®-AKE used dipeptide diaminobutyroyl benzylamide (Cayman Chemical, Ann Arbor, MI, USA). All peptides used in this study were synthesized and supplied by Anygen (Gwangju, Republic of Korea). Phosphate-buffered saline (PBS), Tween 20, polyethylene glycol (weight-averaged molecular weight (MW) = 8000), LB agar, and bovine serum albumin (BSA) were purchased from Sigma-Aldrich (St. Louis, MO, USA). All reagents and cell culture media were purchased from WELGENE (Gyeongsan-si, Republic of Korea). The INCI name for the novel peptide is Palmitoyl Hexapeptide-93. It was synthesized by Incospharm (Daejeon, Republic of Korea), and clinical trials were conducted with a content of 500 ppm (w/v).
The SPR analysis was performed using a BIACORE 3000 (GE healthcare, Chicago, IL, USA). The nAChR subunit α1 was immobilized on a CM5 sensor chip by injecting the protein diluted in PBS (0.2 M phosphate buffer, 0.027 M KCl, 1.37 M NaCl, pH 7.4) at a concentration of 0.35 mg/mL at a flow rate of 5 μL min^−1. After, 5 μM peptide was injected into running buffer (20 mM Tris, pH 7) and its interaction with nAChR subunit α1 was measured at a flow rate of 30 μL min^−1. For kinetic experiments, peptides diluted in running buffer at concentrations ranging from […] to 200, 400, 600, 1000, and 1200 nM were injected at a flow rate of 30 μL min^−1 over the immobilized nAChR subunit α1. The association and dissociation kinetic rate constants (ka and kd) and the equilibrium […], KD, were calculated using BIAevaluation 3.1 software.

dermal fibroblasts = experiment: In vitro cell viability (MTT) assay; assay type: cell-based, human; conditions: 24 h
Method: (§1) TE671 rhabdomyosarcoma cell line was purchased from Korea Cell Line Bank (Seoul, Republic of Korea). Dermal fibroblasts (Hs68) were purchased from American Type Culture Collection. Cells were cultured in Dulbecco’s Modified Eagle’s medium (DMEM) and medium containing 10% fetal bovine serum (FBS), 1% penicillin-streptomycin at 37 °C, and up to 5% CO2. Human skin keratinocytes (HEKn) were purchased from Thermo Fisher Scientific (Waltham, MA, USA) and cultured using keratinocyte growth medium, keratinocyte-SFM supplemented with epidermal growth factor (EGF) and bovine pituitary extract (BPE) at 37 °C, and up to 5% CO2.
The in vitro cytotoxicity of the novel peptide on cells was assessed using the MTT [(3-(4,5-dimethylthiazol-2-yl)-2,5-diphenyltetrazolium bromide] cell viability assay. Briefly, dermal fibroblasts were cultured in 24-well plates at a density of 1 × 10^5 cells/well for 18 h. After the medium was removed, the sample diluted in FBS-free medium was added and cultured for 24 h. Then, after the medium was removed, MTT solution was added at a concentration of […] and left to react for 3 h. Unreacted MTT was removed, 100 μL of DMSO was added to dissolve the formed reaction product, and the absorbance at 540 nm was measured and evaluated using an ELISA reader.

human skin = experiment: Human skin irritation patch test; assay type: in vivo
Method: The skin irritation test was conducted at CRA Korea Co., Ltd. in the Republic of Korea, with the approval serial number CRA21-HIPTRP1001. The patch used was the IQ Ultra Chamber (Chemotechnique Diagnostics, Vellinge, Sweden). The human skin primary irritation test was completed, with all 31 subjects participating until the end of the study. The test area for the product was the back (excluding the spinal area). The patch was applied for 24 h and then removed. The first evaluation was conducted 30 min after patch removal while waiting for the transient erythema to disappear due to removal, and the second evaluation was conducted 24 h after patch removal. The irritation criterion used a measurement evaluation method designed by Frosch and Kligman by applying the reading standards of the International Contact Dermatitis Research Group (ICDRG).

[1] = tested on: human cornea model (MCTT HCE^TM); experiment: Eye irritation test, human cornea model (MCTT HCE); assay type: cell-based; conditions: for Cell survival (%Control): 10 min exposure, 18 h post-culture, WST-1; for Average absorption: mean of N1 and N2; for Absorption (N1): replicate N1, WST-1, 450 nm; for Absorption (N2): replicate N2, WST-1, 450 nm
Method: To evaluate the eye irritation potential of the peptide, an in vitro experimental model recognized by the OECD as an alternative animal evaluation method, the human cornea model (MCTT HCE^TM), was used. The experiment was conducted according to the standard experimental method provided by the manufacturer, Biosolution (Seoul, Republic of Korea). First, before the experiment, the color interference of the test material was checked, and to begin the experiment, MCTT HCE^TM was incubated for 22 h at 5% CO2 and 37 °C. Next, 40 μL of the peptide was applied to the top of the MCTT HCE^TM and left to react for 10 min. Afterwards, the peptide was removed using DPBS, and MCTT HCE^TM was transferred to a new medium and cultured for 18 h at 5% CO2 and 37 °C. After the culture was completed, 200 μL/well of WST-1 solution diluted at a ratio of 1:25 was added to a new plate, MCTT HCE^TM was transferred thereon, and 100 μL of WST-1 solution was treated inside.

[2] = tested on: muscle nAChR (TE671 cells expressing nAChRs); experiment: In vitro intracellular nicotine response assay; assay type: cell-based, human; conditions: 400 μM nicotine; for nicotine response: Fura-2-AM 340/380 nm, positive control, mean of three repeated measurements
Method: as §1
TE671 cells were cultured in DMEM and medium containing 10% FBS, 1% penicillin-streptomycin at 37 °C, and up to 5% CO2. An 18 mm coverslip was placed on a 12-well cell culture plate, cultured cells were removed with trypsin, and 1 mL was dispensed into each well to make 2 × 10^4 cells/well, followed by culturing for 4 days. The coverslip with the cultured cells was transferred to a new 12-well plate, mixed with 997 μL of HBSS buffer and 3 μL of Fura-2-AM (Invitrogen, Waltham, MA, USA), and incubated for 15 min. After incubation, the remaining Fura-2-AM was removed by washing three times with HBSS buffer, and 1 mL of HBSS buffer was additionally dispensed. After mounting the coverslip in the chamber (Live Cell Instrument, Namyangju-si, Republic of Korea), 500 μL of HBSS buffer was dispensed, and the peptide and nicotine samples to be tested were adjusted according to the concentration. Then, 10 to 20 cells were selected and captured alternately at 340 nm and 380 nm wavelengths at 500 ms intervals through a fluorescence microscope (DMI3000 B, Leica Microsystems, Wetzlar, Germany). The fluorescence ratio at 340/380 nm was calculated using the LAS X program.

nAChRs = conditions: ref [16]; read-out: IC50 (binds to nAChRs and inhibits the action of ACh); cited from earlier work
From the text: Muscle contraction is induced by acetylcholine (ACh), a neurotransmitter released from nerve cells. ACh is released into the space between muscles and nerves when synaptic vesicles fuse with the cell membrane through the action of the SNARE (Soluble N-ethylmaleimide-sensitive factor attachment protein receptor) complex within nerve cells. Released ACh binds to nAChR or muscarinic acetylcholine receptor (mAChR) on the muscle cell surface to induce muscle contraction. Facial wrinkles are formed by muscle contraction through the binding of muscle nAChRs (subtypes α1, β1, δ, γ, and ...

[3] = 0.1ppm, 30 min after patch removal, 31 subjects
[4] = 0.1ppm, 24 hours after patch removal, 31 subjects
[5] = 1ppm, 30 min after patch removal, 31 subjects
[6] = 1ppm, 24 hours after patch removal, 31 subjects
[7] = 10ppm, 30 min after patch removal, 31 subjects
[8] = 10ppm, 24 hours after patch removal, 31 subjects
[9] = 100ppm, 30 min after patch removal, 31 subjects
[10] = 100ppm, 24 hours after patch removal, 31 subjects
[11] = methyl acetate (no concentration)

T1 sequence (P02708 21-457): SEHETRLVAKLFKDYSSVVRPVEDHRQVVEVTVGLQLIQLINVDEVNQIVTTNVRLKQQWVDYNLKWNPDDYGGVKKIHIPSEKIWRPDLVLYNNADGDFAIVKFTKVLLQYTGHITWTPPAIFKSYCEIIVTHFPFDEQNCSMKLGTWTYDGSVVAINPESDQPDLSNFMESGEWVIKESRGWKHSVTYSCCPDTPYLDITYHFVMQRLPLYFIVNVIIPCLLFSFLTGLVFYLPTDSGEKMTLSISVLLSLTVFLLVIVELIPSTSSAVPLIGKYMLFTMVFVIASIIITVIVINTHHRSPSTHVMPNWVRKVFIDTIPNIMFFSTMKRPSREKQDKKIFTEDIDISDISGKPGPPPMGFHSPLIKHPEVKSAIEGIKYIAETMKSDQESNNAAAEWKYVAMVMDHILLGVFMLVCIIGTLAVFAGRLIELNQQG

## RRGVRR [Peptide 289]
nAChR subunit α1; SPR, 200-1200 nM, 20 mM Tris pH 7, 30 μL/min, read-out: ka
  kon: 14900 M⁻¹ s⁻¹
nAChR subunit α1; binding affinity to nAChR subunit α1, bound given in abstract, SPR
  Kd: < 1 µM
nAChR subunit α1; equilibrium dissociation constant (KD), SPR, 200-1200 nM, 20 mM Tris pH 7, BIAevaluation 3.1
  Kd: 0.609 µM
nAChR subunit α1; pH 7, read-out: dissociation rate constant (kd)
  koff: 0.00906 s⁻¹
Dermal fibroblasts; 0.1 ppm to 100 ppm, dermal fibroblasts, 540 nm
  cytotoxicity: no toxicity
Dermal fibroblasts; up to 100 μg/mL, fibroblasts
  cytotoxicity: non-cytotoxic
Human skin; 0.1ppm
  skin irritation judgement: No irritation
Human skin; 0.1 ppm to 100 ppm, 24 h patch, back, 31 subjects
  skin reactivity score: 0.0 ± 0.00
Human skin; 0.1 ppm to 100 ppm, Frosch and Kligman and COLIPA criteria, 31 subjects
  skin irritation: non-irritation
Human skin; 0.1ppm, 31 subjects
  Average response (%): 0.0±0.00%
Human skin; [3]
  subjects with 1+ reaction: 0
  subjects with 2+ reaction: 0
  subjects with 3+ reaction: 0
  subjects with ± reaction: 0
Human skin; [4]
  subjects with 1+ reaction: 0
  subjects with 2+ reaction: 0
  subjects with 3+ reaction: 0
  subjects with ± reaction: 0
Human skin; 1ppm
  skin irritation judgement: No irritation
Human skin; 1ppm, 31 subjects
  Average response (%): 0.0±0.00%
Human skin; [5]
  subjects with 1+ reaction: 0
  subjects with 2+ reaction: 0
  subjects with 3+ reaction: 0
  subjects with ± reaction: 0
Human skin; [6]
  subjects with 1+ reaction: 0
  subjects with 2+ reaction: 0
  subjects with 3+ reaction: 0
  subjects with ± reaction: 0
Human skin; 10ppm
  skin irritation judgement: No irritation
Human skin; 10ppm, 31 subjects
  Average response (%): 0.0±0.00%
Human skin; [7]
  subjects with 1+ reaction: 0
  subjects with 2+ reaction: 0
  subjects with 3+ reaction: 0
  subjects with ± reaction: 0
Human skin; [8]
  subjects with 1+ reaction: 0
  subjects with 2+ reaction: 0
  subjects with 3+ reaction: 0
  subjects with ± reaction: 0
Human skin; 100ppm
  skin irritation judgement: No irritation
Human skin; 100ppm, 31 subjects
  Average response (%): 0.0±0.00%
Human skin; [9]
  subjects with 1+ reaction: 0
  subjects with 2+ reaction: 0
  subjects with 3+ reaction: 0
  subjects with ± reaction: 0
Human skin; [10]
  subjects with 1+ reaction: 0
  subjects with 2+ reaction: 0
  subjects with 3+ reaction: 0
  subjects with ± reaction: 0
[1]; 0.1ppm
  Average absorption, second value: 1.469
  Cell survival (%Control): 105.30%
  Average absorption: 1.523
  Absorption (N1): 1.461
  Absorption (N2): 1.585
[1]; 0.1 ppm to 100 ppm, MCTT HCE
  eye irritation: non-irritating
[1]; 1ppm
  Average absorption, second value: 1.553
  Cell survival (%Control): 111.30%
  Average absorption: 1.607
  Absorption (N1): 1.558
  Absorption (N2): 1.656
[1]; 10ppm
  Average absorption, second value: 1.47
  Cell survival (%Control): 105.30%
  Average absorption: 1.524
  Absorption (N1): 1.464
  Absorption (N2): 1.583
[1]; 100ppm
  Average absorption, second value: 1.456
  Cell survival (%Control): 104.30%
  Average absorption: 1.51
  Absorption (N1): 1.563
  Absorption (N2): 1.456

## dipeptide diaminobutyroyl benzylamide [SYN®-AKE]
[2]; 100 μM
  nicotine response: 98%
[2]; 250 μM
  nicotine response: 52.5%
[2]
  concentration required to inhibit the nicotinic response: 500 µM
[2]; 500 μM
  nicotine response: 3.5%
nAChRs
  IC50: 180 µM

## COC(C)=O [Methyl acetate, reference compound]
[1]; [11]
  Average absorption, second value: 0.066
  eye irritation judgement (Standard): Irritant
  Cell survival (%Control): 4.70%
  Average absorption: 0.12
  Absorption (N1): 0.102
  Absorption (N2): 0.138
